Activity calls are given as the source filed them.
Experiments:
[1] = target: T1, Corticotropin-releasing factor receptor 2/Corticotropin-releasing factor-binding protein (Homo sapiens, UniProt P24387+Q13324); test: activators of CRF receptor 2 with binding protein – uHTS hits, confirmation (AID 602473); format: functional; conditions: read-out: EC50_Mean
T1 sequence (Q13324 whole entry): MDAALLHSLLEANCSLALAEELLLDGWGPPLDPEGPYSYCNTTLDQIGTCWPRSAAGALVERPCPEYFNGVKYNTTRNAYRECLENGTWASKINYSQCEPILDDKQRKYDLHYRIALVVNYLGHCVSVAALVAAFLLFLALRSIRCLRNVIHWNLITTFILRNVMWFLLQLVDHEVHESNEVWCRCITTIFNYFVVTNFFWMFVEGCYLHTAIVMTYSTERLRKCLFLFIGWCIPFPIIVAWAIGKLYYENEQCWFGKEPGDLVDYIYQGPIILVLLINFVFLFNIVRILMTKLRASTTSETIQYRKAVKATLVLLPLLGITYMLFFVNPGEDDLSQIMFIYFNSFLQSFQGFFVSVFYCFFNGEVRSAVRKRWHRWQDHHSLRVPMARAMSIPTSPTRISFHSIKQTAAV
T1 sequence (P24387 whole entry): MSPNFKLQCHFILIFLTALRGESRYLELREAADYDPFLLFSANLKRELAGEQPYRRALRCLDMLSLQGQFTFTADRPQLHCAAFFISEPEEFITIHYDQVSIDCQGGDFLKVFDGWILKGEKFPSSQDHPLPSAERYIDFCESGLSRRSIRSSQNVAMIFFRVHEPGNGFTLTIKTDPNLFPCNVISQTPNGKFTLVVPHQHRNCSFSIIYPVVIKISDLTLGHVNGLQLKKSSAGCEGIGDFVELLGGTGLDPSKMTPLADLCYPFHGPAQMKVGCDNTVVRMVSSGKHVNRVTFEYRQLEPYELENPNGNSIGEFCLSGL

[2] = CRF-BP/CRF-R2 complex antagonists, dose response, cell-based, uHTS hits, 384-well (AID 651639); format: functional, Homo sapiens; conditions: read-out: IC50_Mean
[3] = target: T1, Corticotropin-releasing factor receptor 2/Corticotropin-releasing factor-binding protein; test: Dose Response confirmation of uHTS hits for small molecule antagonists of the CRF-binding protein and CRF-R2 receptor complex.; format: functional; conditions: read-out: IC50_Mean
Steroidogenic factor 1 = Steroidogenic factor 1 (Homo sapiens, UniProt Q13285); test: Counterscreen for inverse agonists of the liver receptor homolog-1 (LRH-1; NR5A2): Luminescence-based cell-based high throughput dose response assay to identify inverse agonists of the Steroidogenic Factor 1 Nuclear Receptor (SF1; NR5A1).; format: functional
[4] = target: Nuclear receptor subfamily 5 group A member 2 (Homo sapiens, UniProt O00482); format: functional, cell-based;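 note: HEK293T cells transfected with LRH-1 and a StAR promoter luciferase reporter; potency for inhibitors that lower LRH-1 driven reporter light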
[5] = StAR promoter reporter inhibition counter-screen, dose response, counter-screen for LRH-1 inverse agonist project, cell-based, luminescence, luciferase reporter (AID 651969); format: functional
[6] = target: T2, Sentrin-specific protease 8 (Homo sapiens, UniProt Q96LD8); format: functional
T2 sequence (Q96LD8 whole entry): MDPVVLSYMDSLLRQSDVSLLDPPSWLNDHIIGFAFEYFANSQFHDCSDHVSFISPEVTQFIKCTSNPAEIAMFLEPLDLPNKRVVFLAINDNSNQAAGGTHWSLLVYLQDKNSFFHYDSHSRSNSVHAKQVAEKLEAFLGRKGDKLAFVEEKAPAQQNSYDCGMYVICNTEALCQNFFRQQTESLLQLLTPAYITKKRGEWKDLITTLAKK

[7] = target: T2, Sentrin-specific protease 8; format: functional; remark: listed apart in the source
[8] = target: T3, Carboxy-terminal domain RNA polymerase II polypeptide A small phosphatase 1 (Homo sapiens, UniProt Q9GZU7); test: inhibitors of CTDSP1, concentration-response testing, biochemical assay, absorbance-based, actives from ultra-high-throughput screening (AID 540297); format: functional
T3 sequence (Q9GZU7 whole entry): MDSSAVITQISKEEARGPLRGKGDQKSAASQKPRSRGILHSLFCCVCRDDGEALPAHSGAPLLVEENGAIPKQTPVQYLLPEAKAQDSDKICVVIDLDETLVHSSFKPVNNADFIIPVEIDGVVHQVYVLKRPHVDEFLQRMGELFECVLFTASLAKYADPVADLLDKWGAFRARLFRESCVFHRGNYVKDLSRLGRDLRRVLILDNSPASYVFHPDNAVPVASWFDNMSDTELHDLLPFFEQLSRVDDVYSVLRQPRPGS

Aminopeptidase N = target: T4, Aminopeptidase N (Plasmodium falciparum FcB1/Columbia, UniProt O96935); test: P. falciparum M1AAP inhibitors, biochemical, fluorogenic H-Leu-NHMec substrate, 1536-well (AID 1445); set-up: species or system Plasmodium falciparum 3D7, 3D7
T4 sequence (O96935 whole entry): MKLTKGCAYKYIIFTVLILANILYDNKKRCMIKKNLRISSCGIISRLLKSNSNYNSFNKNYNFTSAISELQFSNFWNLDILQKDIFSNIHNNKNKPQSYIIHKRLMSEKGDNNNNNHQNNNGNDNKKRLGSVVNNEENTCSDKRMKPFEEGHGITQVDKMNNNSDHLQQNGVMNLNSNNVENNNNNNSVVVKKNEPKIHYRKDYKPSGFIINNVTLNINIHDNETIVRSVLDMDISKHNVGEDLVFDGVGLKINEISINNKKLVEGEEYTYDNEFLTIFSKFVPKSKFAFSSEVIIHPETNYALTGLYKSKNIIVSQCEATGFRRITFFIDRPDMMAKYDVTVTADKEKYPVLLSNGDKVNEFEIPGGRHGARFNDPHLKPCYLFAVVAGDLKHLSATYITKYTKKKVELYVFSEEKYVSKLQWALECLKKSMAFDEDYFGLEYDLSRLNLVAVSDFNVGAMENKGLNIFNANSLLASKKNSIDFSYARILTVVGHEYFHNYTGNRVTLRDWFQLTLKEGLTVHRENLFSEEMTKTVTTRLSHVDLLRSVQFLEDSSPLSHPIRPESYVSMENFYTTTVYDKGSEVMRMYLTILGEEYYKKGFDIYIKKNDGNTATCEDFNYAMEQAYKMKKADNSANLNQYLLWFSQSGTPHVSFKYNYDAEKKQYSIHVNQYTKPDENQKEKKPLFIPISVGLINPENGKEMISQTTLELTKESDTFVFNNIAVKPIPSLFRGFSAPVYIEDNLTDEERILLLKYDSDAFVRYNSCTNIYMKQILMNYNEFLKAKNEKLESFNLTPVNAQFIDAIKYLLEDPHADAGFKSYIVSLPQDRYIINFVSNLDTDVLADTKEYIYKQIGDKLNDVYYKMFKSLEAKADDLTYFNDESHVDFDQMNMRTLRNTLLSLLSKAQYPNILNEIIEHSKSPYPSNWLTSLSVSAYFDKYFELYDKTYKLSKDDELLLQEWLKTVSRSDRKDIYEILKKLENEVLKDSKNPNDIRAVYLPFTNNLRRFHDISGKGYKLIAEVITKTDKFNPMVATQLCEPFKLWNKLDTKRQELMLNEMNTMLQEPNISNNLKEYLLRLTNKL

Genome polyprotein = Genome polyprotein (dengue virus type 2, UniProt P29990); test: Dengue-2 NS5 methyltransferase inhibitors, primary screen, biochemical, confirmation dose response (AID 588689); format: functional
Large T antigen = Large T antigen (Simian virus 40, UniProt P03070); format: functional, Betapolyomavirus macacae;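 note: Confirmatory-stage PubChem screen for compounds that inhibit SV40 T antigen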
[9] = target: 26S proteasome non-ATPase regulatory subunit 14 (Homo sapiens, UniProt O00487); test: inhibition of proteasome subunit RPN11 – biochemical, fluorescence polarization, uHTS hits, confirmation (AID 602368); format: functional
Prothrombin = Prothrombin (Bos taurus, UniProt P00735); test: thrombin inhibition, dose response, biochemical, fluorescence polarization, uHTS hits (AID 602369); format: functional
[10] = target: 72 kDa type IV collagenase (Homo sapiens, UniProt P08253); test: Dose Response validation of uHTS RPN11 inhibitor hits using a MMP-2 Fluorescence assay.; format: functional
[11] = target: T5, Rac GTPase-activating protein 1 (Homo sapiens, UniProt Q9H0H5); test: MgcRacGAP GTPase-activating activity inhibitors, confirmation, biochemical, ADP Hunter fluorescence, primary and confirmatory (AID 624330); format: functional
T5 sequence (Q9H0H5 whole entry): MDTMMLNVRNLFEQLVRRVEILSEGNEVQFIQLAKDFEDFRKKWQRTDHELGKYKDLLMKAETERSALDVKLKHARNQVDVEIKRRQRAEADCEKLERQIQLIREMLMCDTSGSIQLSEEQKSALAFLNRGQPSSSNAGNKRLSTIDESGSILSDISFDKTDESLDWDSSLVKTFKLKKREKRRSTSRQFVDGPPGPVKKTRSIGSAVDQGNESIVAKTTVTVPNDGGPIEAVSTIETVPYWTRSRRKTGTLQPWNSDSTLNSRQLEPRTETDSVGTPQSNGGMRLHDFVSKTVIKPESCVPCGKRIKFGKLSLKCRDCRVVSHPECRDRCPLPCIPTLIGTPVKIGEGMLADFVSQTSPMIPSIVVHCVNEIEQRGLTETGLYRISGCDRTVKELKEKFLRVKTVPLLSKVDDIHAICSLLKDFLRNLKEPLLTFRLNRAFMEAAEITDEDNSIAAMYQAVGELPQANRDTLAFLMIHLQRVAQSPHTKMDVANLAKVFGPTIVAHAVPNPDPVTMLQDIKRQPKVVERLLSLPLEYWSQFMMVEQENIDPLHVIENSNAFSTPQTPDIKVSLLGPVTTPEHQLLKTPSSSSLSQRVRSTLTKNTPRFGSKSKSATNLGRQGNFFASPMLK

[12] = HepG2 cell cytotoxicity, dose response, cytotoxicity control, plate reader, cherry-pick, antagonist series (AID 743416); format: functional, cell-based
[13] = Luminescence Cell-Based Dose Confirmation HTS to Identify Inhibitors of Platelet Dense Granule Release. [Related pubchem assays: 1663 (Primary HTS), 1678 (Summary of Project)]; format: functional
[14] = LGR2 antagonists, dose response, cell-based, HEK293, CRE-luciferase reporter, cherry pick, set 2 (AID 743343); format: functional;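 note: transfected cells were stimulated with diluted bursicon conditioned medium after compound addition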
[15] = HEK293 cell cytotoxicity, dose response, cytotoxicity control, plate reader, cherry-picked samples (AID 743446); format: functional, cell-based
[16] = MC4R antagonists, dose response, counter-screen for LGR2 antagonist project, cell-based, plate reader, cherry pick (AID 743444); format: functional;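 note: transfected HEK 293 cells stimulated with alpha-MSH peptide; potency of inhibitors of the alpha-MSH evoked signal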
[17] = A549 cell cytotoxicity, dose response, cytotoxicity control, plate reader, cherry-pick, antagonist series (AID 743412); format: functional, cell-based
HEK293 = test: inhibitors of LMP1-driven NF-kB reporter, dose response, cell-based, HEK293, luciferase, cherry-pick (AID 588343); format: functional; conditions: Homo sapiens
[18] = ARNT/TACC3 interaction disruptors, potency, confirmation, biochemical, AlphaScreen, cherry-picked samples (AID 651703); format: functional, Homo sapiens;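 note: His-tagged ARNT PAS-B domain paired with GST-TACC3 E629A dimer coactivator fragment; potency of inhibitors that break up the complex and lower AlphaScreen signal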
[19] = target: Luciferin 4-monooxygenase (Photinus pyralis, UniProt P08659); test: firefly luciferase enzyme inhibitors, dose response, biochemical, luminescence (AID 1891)
[20] = Fluorescence-based cell-based high throughput dose response assay for inhibitors of the interaction of nucleotide-binding oligomerization domain containing 2 (NOD2) and the receptor-interacting serine-threonine kinase 2 (RIPK2).; format: functional; conditions: Homo sapiens

Steroidogenic factor 1, sequence (Q13285 whole entry): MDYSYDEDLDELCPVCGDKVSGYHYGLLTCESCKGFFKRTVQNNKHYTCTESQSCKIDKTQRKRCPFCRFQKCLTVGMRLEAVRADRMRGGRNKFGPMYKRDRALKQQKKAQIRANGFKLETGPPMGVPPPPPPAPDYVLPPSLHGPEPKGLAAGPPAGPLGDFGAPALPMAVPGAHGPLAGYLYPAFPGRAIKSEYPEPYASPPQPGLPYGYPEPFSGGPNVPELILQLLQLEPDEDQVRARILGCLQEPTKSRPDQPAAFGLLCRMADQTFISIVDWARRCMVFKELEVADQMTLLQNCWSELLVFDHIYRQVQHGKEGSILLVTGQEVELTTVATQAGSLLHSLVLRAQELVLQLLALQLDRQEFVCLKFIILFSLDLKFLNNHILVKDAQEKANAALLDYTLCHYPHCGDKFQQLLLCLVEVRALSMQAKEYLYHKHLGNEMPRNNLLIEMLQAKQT
Nuclear receptor subfamily 5 group A member 2, sequence (O00482 whole entry): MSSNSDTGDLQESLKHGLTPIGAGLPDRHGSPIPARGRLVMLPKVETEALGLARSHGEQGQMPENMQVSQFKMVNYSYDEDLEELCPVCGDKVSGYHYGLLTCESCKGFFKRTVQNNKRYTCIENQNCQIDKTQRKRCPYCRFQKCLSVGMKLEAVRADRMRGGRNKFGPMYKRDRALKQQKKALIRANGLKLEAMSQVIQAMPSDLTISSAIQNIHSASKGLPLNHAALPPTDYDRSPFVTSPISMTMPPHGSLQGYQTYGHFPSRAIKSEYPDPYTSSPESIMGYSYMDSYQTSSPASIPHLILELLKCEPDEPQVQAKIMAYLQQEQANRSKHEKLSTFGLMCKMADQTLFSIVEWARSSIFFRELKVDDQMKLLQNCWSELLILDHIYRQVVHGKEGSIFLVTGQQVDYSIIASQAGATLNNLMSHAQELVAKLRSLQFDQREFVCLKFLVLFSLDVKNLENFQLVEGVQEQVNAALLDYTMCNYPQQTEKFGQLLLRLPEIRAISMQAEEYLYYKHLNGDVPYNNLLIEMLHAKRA
Luciferin 4-monooxygenase, sequence (P08659 whole entry, the tested form may be a part): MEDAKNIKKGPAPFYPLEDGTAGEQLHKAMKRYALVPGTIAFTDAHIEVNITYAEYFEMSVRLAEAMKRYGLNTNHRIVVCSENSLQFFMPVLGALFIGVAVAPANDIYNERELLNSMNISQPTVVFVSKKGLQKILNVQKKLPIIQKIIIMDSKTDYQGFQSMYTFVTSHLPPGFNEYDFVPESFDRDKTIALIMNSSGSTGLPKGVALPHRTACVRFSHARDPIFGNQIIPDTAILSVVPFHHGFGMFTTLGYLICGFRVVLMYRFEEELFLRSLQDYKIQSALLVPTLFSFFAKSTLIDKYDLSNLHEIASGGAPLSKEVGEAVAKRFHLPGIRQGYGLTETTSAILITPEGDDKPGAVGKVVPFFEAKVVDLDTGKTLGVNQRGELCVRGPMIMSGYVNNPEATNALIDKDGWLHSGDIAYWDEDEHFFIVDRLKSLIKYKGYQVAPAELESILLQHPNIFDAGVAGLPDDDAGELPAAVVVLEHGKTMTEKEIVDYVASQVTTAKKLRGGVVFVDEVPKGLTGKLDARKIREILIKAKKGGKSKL
Genome polyprotein, sequence (P29990 2492-3391 limits assumed): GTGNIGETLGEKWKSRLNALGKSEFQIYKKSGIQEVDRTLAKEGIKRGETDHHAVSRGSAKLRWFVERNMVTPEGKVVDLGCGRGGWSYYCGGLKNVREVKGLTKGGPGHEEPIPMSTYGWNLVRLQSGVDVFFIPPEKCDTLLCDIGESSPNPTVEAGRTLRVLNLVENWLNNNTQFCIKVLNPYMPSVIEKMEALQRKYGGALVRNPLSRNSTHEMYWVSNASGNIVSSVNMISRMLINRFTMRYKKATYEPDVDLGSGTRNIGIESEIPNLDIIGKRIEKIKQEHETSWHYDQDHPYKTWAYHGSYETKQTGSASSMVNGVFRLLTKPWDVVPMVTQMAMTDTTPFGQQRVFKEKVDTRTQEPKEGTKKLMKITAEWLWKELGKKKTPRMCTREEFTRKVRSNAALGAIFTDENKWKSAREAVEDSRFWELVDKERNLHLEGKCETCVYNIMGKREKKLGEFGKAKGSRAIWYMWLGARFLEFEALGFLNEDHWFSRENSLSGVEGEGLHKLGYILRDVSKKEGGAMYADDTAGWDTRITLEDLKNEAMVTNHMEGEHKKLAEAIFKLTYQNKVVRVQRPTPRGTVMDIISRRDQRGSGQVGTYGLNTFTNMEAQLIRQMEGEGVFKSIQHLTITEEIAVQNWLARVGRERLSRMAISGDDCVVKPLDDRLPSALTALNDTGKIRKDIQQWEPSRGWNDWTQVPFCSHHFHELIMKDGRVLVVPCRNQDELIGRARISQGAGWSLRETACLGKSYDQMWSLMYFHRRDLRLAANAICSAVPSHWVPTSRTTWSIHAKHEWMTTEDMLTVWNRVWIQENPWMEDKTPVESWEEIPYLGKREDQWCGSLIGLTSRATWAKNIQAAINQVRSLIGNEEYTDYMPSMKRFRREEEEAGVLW
Large T antigen, sequence (P03070 whole entry): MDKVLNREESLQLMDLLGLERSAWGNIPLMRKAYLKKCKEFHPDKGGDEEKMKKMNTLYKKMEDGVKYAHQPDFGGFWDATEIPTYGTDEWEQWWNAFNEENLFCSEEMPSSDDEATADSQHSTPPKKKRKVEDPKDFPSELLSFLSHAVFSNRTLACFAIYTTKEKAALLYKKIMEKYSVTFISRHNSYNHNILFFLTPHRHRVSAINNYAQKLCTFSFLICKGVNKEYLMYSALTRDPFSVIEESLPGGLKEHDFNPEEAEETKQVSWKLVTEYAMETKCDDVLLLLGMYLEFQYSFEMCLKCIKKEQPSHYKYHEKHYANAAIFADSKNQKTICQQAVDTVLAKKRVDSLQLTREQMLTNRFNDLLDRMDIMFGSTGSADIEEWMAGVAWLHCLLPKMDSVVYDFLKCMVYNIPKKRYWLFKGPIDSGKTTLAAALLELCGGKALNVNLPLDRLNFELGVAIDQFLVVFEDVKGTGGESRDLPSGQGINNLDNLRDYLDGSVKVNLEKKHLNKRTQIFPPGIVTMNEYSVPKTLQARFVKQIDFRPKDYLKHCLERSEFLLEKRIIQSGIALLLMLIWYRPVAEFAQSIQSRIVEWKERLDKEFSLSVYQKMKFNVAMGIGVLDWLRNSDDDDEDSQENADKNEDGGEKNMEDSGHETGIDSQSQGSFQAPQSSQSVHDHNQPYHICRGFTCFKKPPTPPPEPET
72 kDa type IV collagenase, sequence (P08253 whole entry): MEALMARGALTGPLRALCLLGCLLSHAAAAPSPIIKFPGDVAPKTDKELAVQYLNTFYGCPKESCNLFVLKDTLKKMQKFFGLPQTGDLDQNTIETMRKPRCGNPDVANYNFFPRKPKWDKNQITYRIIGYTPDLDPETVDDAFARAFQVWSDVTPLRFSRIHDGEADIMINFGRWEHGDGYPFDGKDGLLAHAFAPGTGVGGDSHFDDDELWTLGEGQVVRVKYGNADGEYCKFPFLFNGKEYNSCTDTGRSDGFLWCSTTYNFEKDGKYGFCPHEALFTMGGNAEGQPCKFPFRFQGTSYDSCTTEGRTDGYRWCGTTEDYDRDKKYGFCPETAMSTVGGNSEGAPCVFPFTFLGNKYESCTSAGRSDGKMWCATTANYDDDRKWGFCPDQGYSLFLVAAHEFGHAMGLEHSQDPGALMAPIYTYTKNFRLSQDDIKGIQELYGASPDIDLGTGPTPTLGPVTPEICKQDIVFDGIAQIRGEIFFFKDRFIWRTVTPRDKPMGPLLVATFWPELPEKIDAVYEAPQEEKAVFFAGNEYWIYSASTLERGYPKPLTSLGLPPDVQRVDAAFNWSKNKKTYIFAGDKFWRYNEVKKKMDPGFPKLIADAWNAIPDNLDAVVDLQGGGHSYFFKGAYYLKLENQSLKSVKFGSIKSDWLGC
26S proteasome non-ATPase regulatory subunit 14, sequence (O00487 whole entry): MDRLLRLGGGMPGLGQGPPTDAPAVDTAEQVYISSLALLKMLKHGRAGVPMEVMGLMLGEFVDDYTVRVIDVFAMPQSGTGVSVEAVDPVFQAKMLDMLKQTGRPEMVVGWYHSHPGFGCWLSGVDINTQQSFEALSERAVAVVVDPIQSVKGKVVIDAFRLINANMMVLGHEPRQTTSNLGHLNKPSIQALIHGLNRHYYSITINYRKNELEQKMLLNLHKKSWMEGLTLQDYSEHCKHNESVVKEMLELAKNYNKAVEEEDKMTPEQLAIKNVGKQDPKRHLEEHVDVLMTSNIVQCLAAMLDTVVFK

Structure (SMILES): O=C(Nc1nnc(S(=O)(=O)Nc2ccccc2)s1)c1ccccc1Cl
- EC50 [1]: > 53 µM (inactive)
- IC50 [2]: 7.38 µM (active)
- IC50 [3]: < 0.368 µM (active)

Structure (SMILES): O=C(COc1ccc2c3c(c(=O)oc2c1)CCCC3)NCCCN1CCOCC1
- IC50 (Steroidogenic factor 1): 35.9 µM (inactive)
- IC50 [4]: 35.9 µM (inactive)
- IC50 [5]: 35.9 µM (inactive)

Structure (SMILES): Cc1n[nH]c(O)c1C(c1c(C)n[nH]c1O)c1cn(C)c2ccccc12
- IC50 [6]: 11.9 µM (active)
- IC50 [7]: 11.2 µM (active)

Structure (SMILES): O=C(O)c1ccc(COc2ccccc2C=C2C(=O)c3ccccc3C2=O)cc1
- IC50 [8]: 5.86 µM (active)
- IC50 (Aminopeptidase N): 74.9 µM (active)
- IC50 (Genome polyprotein): 6.33 µM (active)
- IC50 (Large T antigen): 35.2 µM (active)
- IC50 [9]: 17.1 µM (active)
- EC50 [1]: 10 µM (active)
- IC50 (Prothrombin): > 100 µM (inactive)
- IC50 [2]: 1.47 µM (active)
- IC50 [10]: > 100 µM (inactive)
- IC50 [3]: < 0.368 µM (active)
- IC50 [11]: 85.9 µM (active)

Structure (SMILES): Cc1ccc2[nH]c(-c3ccccn3)nc2c1
- AC50 [12]: 34.3 µM (active)
- EC50 [13]: 14.7 µM (active)
- AC50 [14]: 5.45 µM (active)
- AC50 [15]: > 52 µM (inactive)
- AC50 [16]: 6.67 µM (active)
- AC50 [17]: 27.3 µM (active)
- AC50 (HEK293): 3.34 µM (active)
- AC50 [18]: 76 µM (active)
- EC50 [19]: 2.78 µM (active)

Structure (SMILES): O=C1/C(=C/c2ccccc2)CN(C(=O)CCN2CCOCC2)C/C1=C\c1ccccc1
- IC50 [20]: 6.29 µM (active)

Structure (SMILES): C[C@H](CO)N1C[C@H](C)[C@H](CN(C)Cc2ccncc2)Oc2cc(-c3ccccc3F)ccc2S1(=O)=O
- IC50 (Steroidogenic factor 1): 1.33 µM (active)
- IC50 [4]: 1.33 µM (active)
- IC50 [5]: 15.5 µM (inactive)

— ChEMBL document CHEMBL1201862, “PubChem BioAssay data set” (2004)
